# Test results reported in US8143226B2, “Tyrosine kinase receptor antagonists and methods of treatment for breast cancer” (The Regents of the University of California, priority 2005, dated 2012).
# How the values were obtained:
# [1] = biological target: T1, IGF-1R kinase domain peptide (Homo sapiens, UniProt P08069); experiment: IGF-1R kinase domain peptide autophosphorylation (western blot); format: biochemical; conditions: peptide incubated with NDGA prior to 20 μM ATP
# T1 construct: purchased Upstate, USA (Charlottesville, Va.)
# T1 sequence (P08069 989-1367): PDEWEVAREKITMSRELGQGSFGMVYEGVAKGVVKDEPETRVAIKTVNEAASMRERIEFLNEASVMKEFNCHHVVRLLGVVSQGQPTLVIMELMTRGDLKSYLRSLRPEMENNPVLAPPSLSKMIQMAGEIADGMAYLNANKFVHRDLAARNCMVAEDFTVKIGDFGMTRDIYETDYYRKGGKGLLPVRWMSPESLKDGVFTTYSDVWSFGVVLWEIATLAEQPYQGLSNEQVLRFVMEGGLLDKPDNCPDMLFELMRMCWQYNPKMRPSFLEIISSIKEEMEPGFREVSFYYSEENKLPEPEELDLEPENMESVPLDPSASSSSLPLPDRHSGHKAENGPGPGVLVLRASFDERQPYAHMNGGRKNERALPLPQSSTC
# Method: ATP was then added at a final concentration of 20 μM. Autophosphorylation of peptide was allowed to occur for 20 min at 22° C. The reaction was stopped by the addition of SDS-reducing buffer, and the samples were run on SDS-PAGE. Following transfer to nitrocellulose membrane, peptide autophosphorylation was determined by western blotting employing an antibody against phosphotyrosine diluted to 0.5 μg/ml in phosphate buffered saline (PBS) containing 3% milk. The membrane was incubated with the antibody overnight at 4 C. Next, blots were washed 3 times with PBS, then incubated with HRP conjugated sheep anti-rabbit IgG (Amersham, Piscataway, N.J.) diluted 1:50,000 in PBS with 3% milk for 90 minutes at room temperature. After washing, blots were incubated with Super-Signal (Pierce, Rockford, Ill.), and exposed to film. Values were determined by scanning densitometry.
# HER2/neu = biological target: T2, HER2/neu (Rattus norvegicus, UniProt P06494); experiment: HER2/neu autophosphorylation in MCNeuA cells (western blot); format: cell-based, mouse; conditions: read-out: IC50, ligand-independent tyrosine phosphorylation of HER2/neu
# T2 construct: expressed in transfected cells; host or cells: MCNeuA mouse mammary carcinoma cells (MMTV/neu transgene), in culture or grown as tumours in neuTg mice
# T2 sequence (P06494 23-1257): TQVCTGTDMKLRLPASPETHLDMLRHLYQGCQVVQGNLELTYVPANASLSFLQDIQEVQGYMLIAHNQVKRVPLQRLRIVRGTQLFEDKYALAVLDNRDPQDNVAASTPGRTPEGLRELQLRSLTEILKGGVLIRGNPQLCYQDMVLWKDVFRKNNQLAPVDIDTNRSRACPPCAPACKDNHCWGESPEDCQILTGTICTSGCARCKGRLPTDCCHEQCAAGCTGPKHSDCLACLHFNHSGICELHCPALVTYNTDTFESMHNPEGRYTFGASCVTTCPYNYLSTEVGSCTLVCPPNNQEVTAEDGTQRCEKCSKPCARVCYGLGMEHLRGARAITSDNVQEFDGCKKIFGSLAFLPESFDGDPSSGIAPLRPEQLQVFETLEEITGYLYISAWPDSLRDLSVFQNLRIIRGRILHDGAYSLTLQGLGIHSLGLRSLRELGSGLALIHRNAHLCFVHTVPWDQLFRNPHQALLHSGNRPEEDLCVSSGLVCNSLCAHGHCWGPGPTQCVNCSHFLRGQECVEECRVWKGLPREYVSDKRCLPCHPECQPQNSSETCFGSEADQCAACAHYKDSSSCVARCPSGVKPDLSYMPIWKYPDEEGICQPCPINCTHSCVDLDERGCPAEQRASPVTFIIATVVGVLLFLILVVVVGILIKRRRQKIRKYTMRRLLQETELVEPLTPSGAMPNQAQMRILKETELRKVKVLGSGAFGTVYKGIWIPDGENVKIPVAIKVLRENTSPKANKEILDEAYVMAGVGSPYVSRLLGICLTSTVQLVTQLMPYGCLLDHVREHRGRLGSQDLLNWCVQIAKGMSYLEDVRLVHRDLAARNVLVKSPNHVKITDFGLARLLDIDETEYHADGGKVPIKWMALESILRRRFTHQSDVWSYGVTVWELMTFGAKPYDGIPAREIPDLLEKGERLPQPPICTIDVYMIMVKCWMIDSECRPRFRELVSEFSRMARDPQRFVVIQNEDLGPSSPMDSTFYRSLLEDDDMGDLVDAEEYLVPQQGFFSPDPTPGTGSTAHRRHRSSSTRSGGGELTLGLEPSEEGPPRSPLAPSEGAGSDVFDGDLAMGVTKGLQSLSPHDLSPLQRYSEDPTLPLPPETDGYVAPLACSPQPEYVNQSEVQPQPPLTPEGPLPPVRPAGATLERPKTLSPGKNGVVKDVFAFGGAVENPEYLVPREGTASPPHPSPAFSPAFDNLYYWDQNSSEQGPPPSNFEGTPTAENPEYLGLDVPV
# Method: HER2/neu receptor autophosphorylation was determined in serum-starved MCNeuA or SKBR3 cells, which were collected in the basal state, due to the ligand-independent nature of HER2/neu activation. Following a one-hour incubation in serum-free media, soluble extracts of cells were prepared as above. HER2/neu autophosphorylation was determined by a western blot that employed a phosphospecific antibody, pNeu(Tyr1248) as described above.
# IGF-IR = biological target: T3, IGF-IR (Homo sapiens, UniProt P08069); experiment: IGF-IR phosphorylation ELISA in neuroblastoma cells; format: cell-based; conditions: SHEP and SH-SY5Y cells, 60 μM NDGA 1 h, 1 nM IGF-I 10 min
# T3 construct: endogenous in cells; host or cells: SH-SY5Y and SHEP
# T3 sequence (P08069 31-1367): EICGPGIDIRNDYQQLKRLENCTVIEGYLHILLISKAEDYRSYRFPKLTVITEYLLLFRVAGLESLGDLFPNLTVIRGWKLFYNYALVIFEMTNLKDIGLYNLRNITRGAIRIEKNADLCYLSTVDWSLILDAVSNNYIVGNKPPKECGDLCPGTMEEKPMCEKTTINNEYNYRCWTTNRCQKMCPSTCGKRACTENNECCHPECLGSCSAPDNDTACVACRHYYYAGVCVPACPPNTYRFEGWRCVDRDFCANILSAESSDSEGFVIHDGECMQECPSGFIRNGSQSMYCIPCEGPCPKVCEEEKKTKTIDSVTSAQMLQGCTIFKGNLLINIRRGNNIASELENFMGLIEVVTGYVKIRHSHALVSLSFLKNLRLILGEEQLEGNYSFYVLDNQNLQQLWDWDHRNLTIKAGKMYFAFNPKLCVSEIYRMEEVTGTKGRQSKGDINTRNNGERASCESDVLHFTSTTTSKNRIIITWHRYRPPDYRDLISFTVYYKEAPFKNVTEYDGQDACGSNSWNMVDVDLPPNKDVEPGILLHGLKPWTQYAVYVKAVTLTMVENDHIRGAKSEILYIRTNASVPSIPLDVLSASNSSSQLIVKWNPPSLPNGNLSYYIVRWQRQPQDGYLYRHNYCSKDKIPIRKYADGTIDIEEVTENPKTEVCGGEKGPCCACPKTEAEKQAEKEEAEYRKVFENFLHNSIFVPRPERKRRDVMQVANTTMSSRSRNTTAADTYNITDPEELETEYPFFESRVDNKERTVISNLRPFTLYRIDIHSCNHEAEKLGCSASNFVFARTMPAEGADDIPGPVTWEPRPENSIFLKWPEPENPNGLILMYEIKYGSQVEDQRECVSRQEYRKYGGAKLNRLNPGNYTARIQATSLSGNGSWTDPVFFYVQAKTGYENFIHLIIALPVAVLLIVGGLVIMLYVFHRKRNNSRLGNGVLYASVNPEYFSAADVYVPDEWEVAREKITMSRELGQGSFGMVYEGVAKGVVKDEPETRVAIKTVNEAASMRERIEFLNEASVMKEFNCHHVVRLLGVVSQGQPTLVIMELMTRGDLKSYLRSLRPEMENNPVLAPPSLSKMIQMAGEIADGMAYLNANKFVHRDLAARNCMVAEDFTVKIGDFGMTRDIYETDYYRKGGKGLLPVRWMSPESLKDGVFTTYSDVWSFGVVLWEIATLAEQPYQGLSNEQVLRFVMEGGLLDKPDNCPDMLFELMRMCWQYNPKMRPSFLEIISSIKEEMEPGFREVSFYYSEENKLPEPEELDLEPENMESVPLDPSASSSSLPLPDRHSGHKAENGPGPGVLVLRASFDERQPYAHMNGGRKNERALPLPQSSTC
# Method: IGF-1R phlosphorylation ELISA. SH-SY5Y and SHEP cells were grown to 80% confluence in DMEM/10% calf serum, then serum-starved for 4 h. […] Some cultures were then treated with 1 nM IGF-I for 10 min. The medium was removed, cultures rinsed 3× in cold PBS, and lysis buffer (120 mM HEPES, 300 mM NaCl, 2 mM sodium orthovanadate, and 1 mM phenylmethylsufonylfluoride (PMSF)) was added. Cultures were rocked in lysis buffer at 4° C. for 1 h. 96-well plates were coated with αIR-3 antibody in 50 mM NaHCO3, pH 9.0, for 2 h at RT. Plates were rinsed 3× in tris-buffered saline +0.1% Tween (TBST), then blocked with SuperBlock (Pierce, Rockford, Ill.) for 30 min at RT. Each well of the ELISA plate received 30 μg of lysate protein from the cell cultures, followed by 24 h incubation at 4° C. Plates were rinsed 5× with TBST, and HRP-conjugated anti-phosphotyrosine antibody was added (1:2000, diluted in 120 mM HEPES, 300 mM NaCl, 2 mM sodium orthovanadate. and 1 mM PMSF. 1% bovine serum albumin, 1 mg/ml bacitracin, and 0.5% Tween-20) for 2 h at RT. Plates were again rinsed 5× in TBST, and TMB (Pierce) was added until blue color was sufficiently developed. […] Each lysate was run in triplicate, and the experiment was repeated 3 times.
# ERK 1 and 2 = experiment: IGF-stimulated ERK phosphorylation in neuroblastoma cells; format: cell-based, human; conditions: SH-SY5Y cells, NDGA 1 h, 10 nM IGF-I 15 min
# Method: Detection of phospho-Akt and phospho-Erk. […] Then, some cultures were treated with 10 nM IGF-I for 15 min. Cultures were immediately placed on ice, the medium was removed, and the cells were lysed in modified RIPA buffer (20 mM Tris, 150 mM NaCl, 1 mM EDTA, 1 mM EGTA, 1% Triton X-100, 0.1% sodium dodecyl sulfate, and 1% deoxycholate). Fifty μg of protein from each sample were separated via SDS-PAGE and transfened to nitrocellulose. Phospho- and total-Akt and -Erk were detected by immunoblotting.
# SH-SY5Y cells = experiment: Propidium iodide flow cytometry of apoptotic (sub-G0) SH-SY5Y cells; format: cell-based, human; conditions: SH-SY5Y cells in serum, 30-120 μM, 24 h
# Method: Propidium iodide staining of apoptotic cells. SH-SY5Y cells were cultured in DMEM with 10% calf serum. […] The supernatant was collected to save detached cells. Attached cells were removed from the plate via trypsinization, and pelleted by centrifugation in combination with the cells in the supernatant. The cell pellet was fixed by drop-wise addition of cold 70% ethanol while vortexing, gently, and stored at 4° C. The pellet was washed twice and resuspended in PBS and stained with 1 μg/ml propidium iodide. Propidium iodide fluorescence was measured in 30,000 cells per sample using a Becton-Dickinson (Franklin Lakes, N.J.) Facscalibur flow cytometer. The percentage of cells in each stage of the cell cycle, as well as the percentage of cells that were apoptotic (sub-G0) was determined by analyzing the data with ModFit software. The experiment was repeated three times.
# MCF-7/neo cells = experiment: Tamoxifen and/or NDGA growth inhibition of MCF-7/neo cells (CyQuant); format: cell-based; conditions: Homo sapiens, MCF7
# Method: (§1) Cells were estrogen-starved for three days in DMEM containing 10% charcoal-[…]-stripped FCS (CDSS) prior to their plating in 96 well plates. Cells were plated in 100 μl of the same media, allowed to adhere overnight, and then were switched to DMEM+10% CDSS supplemented with 100 pM estrogen. […] The media and inhibitors were refreshed on day 3, the cultures were harvested on day 6, and a CyQuant assay was performed as described above.
# MCF-7/HER2-18 cells = experiment: Tamoxifen and/or NDGA growth inhibition of MCF-7/HER2-18 cells (CyQuant); format: cell-based; conditions: Homo sapiens
# Method: as §1
# [2] = pure NDGA; cited from earlier work
smiles,measurement,setting,value
"CC(Cc1ccc(O)c(O)c1)C(C)Cc1ccc(O)c(O)c1 (stereo not shown) [NDGA, nordihydroguaiaretic acid]",concentration at which activation of the IGF-1R kinase domain was inhibited,[1],1 µM
same,IC50,HER2/neu,15 ± 4 µM
same,IGF-I stimulated IGF-IR tyrosine phosphorylation,IGF-IR,inhibited
same,IGF-stimulated phosphorylation of ERK,ERK 1 and 2,dose-dependent inhibitory effect
same,percentage of sub-G0 cells,SH-SY5Y cells,"dramatic, dose-dependent increase"
same,inhibition at 10 µM,MCF-7/neo cells,23%
same,inhibition at 15 µM,MCF-7/neo cells,55%
same,inhibition at 10 µM,MCF-7/HER2-18 cells,9%
same,inhibition at 15 µM,MCF-7/HER2-18 cells,38%
same,toxicity,[2],minimal toxicity
